Laboratory results published in publication PMC6717386, “Aspulvinone O, a natural inhibitor of GOT1 suppresses pancreatic ductal adenocarcinoma cells growth by interfering glutamine metabolism” (Cell Communication and Signaling : CCS, 2019).

Tests used:
[1] = molecular target: GOT1 (aspartate transaminase 1, glutamic-oxaloacetic transaminase 1) (Homo sapiens, UniProt P17174); assay: microscale thermophoresis with labelled recombinant GOT1; supported by purified enzyme inhibition and kinetics, CETSA and DARTS; type: binding
murine GOT1 = molecular target: T1, murine GOT1 (Mus musculus, UniProt P05201); assay: microscale thermophoresis with labelled recombinant GOT1; supported by purified enzyme inhibition; type: binding
T1 construct: recombinant, C-terminal 6 His-tag
T1 sequence (P05201 2-413): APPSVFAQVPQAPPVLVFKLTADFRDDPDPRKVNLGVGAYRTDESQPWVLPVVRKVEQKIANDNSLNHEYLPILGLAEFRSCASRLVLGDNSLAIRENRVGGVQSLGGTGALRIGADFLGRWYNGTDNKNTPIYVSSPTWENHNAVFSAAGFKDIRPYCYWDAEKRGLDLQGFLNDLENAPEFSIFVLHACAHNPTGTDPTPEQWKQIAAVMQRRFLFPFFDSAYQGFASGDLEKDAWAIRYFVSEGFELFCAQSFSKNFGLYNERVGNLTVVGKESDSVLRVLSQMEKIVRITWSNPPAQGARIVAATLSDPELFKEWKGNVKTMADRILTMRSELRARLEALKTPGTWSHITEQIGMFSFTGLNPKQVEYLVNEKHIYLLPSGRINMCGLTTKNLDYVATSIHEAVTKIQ

GOT1 (aspartate transaminase 1, glutamic-oxaloacetic transaminase 1), sequence (P17174 2-413): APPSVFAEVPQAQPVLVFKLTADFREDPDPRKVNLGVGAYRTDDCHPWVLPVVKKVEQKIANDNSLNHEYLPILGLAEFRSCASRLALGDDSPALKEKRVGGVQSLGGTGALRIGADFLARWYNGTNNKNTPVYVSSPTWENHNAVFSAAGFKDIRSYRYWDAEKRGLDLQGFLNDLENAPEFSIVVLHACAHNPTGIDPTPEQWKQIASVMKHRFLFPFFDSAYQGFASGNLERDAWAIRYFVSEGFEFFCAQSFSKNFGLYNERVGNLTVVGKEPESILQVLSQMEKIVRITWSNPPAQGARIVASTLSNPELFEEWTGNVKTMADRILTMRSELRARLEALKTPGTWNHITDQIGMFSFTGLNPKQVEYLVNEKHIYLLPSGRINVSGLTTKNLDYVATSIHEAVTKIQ

`CC(C)=CCc1cc(/C=C2\OC(=O)C(c3cc(CC=C(C)C)c(O)cc3O)=C2O)ccc1O` [AO, 3-[2,4-Dihydroxy-5-(3-methyl-2-buten-1-yl)phenyl]-4-hydroxy-5-[[4-hydroxy-3-(3-methyl-2-buten-1-yl)phenyl]methylene]-2(5H)-furanone] showed a Kd [1] of 3.32 ± 1.18 µM and a Kd (murine GOT1) of 5.42 ± 1.36 µM.
